Measurements taken from patent publication US20020045780A1, “Biologically active spermidine analogues, pharmaceutical compositions and methods of treatment” (priority 1997, published 2002).
“Also recorded” adds a separate entry of the source. Structures can show the parent of a compound that is named as a salt. Where two headings read alike, the source gives them in different places.

Tests used:
L1210 cells [1] = experiment: L1210 growth inhibition, IC50 determination; assay type: cell-based, murine
Description: Murine L1210 leukemia cells (ATCC CCL 219) were maintained in logarithmic growth in RPMI-1640 medium containing 10% fetal calf serum or a semi-synthetic equivalent, NuSerum, 2% HEPES-MOPS buffer and 1 mM aminoguanidine.

[2] = tested on: polyamine transport apparatus; experiment: Competitive uptake determination: inhibition of [3H]spermidine transport into L1210 cells; assay type: cell-based, murine; details: analogue inhibition of spermidine transport
Description: The ability of the norspermidines, spermidines, homospermidines, 4,5- and 5,5-triamines to compete with radiolabeled SPD for uptake was evaluated (Table 1). The general trend is that the terminally alkylated triamines have higher Ki values than the unalkylated triamines and are thus less easily taken up by the cell. […] This is not completely true with the norspermidines and the 5,5 triamines. The relationship holds with methyl and ethyl but not for the propyl of the latter two systems. Finally, the number of methylenes separating the amines plays a role in determining polyamine uptake properties. In general the effectiveness with which the analogues compete for uptake is spermidines≈homospermidines>4,5 triamines>5,5 triamines>norspermidine.
The polyamine derivatives were studied for their ability to compete with [^3H]-SPD for uptake into L1210 cells [Bergeron et al, J. Med. Chem., Vol. 37, supra]. Lineweaver-Burk plots indicated a simple competitive inhibition with respect to SPD.

[3] = tested on: ornithine decarboxylase (ODC); experiment: ODC activity in treated L1210 cells; assay type: cell-based, murine; details: L1210, 1 μM at 4 hours
Description: (§1) On the basis of these studies, it was elected to evaluate the impact of the triamines on ODC and AdoMetDC at 4 and 6 hours, respectively.
(§2) ODC and AdoMetDC activities were determined as ^14CO2 released from [^14C]-carboxyl-labeled L-ornithine [Seely et al, “Ornithine Decarboxylase (Mouse Kidney),” Methods Enzymol., Vol. 94, pages 158-161 (1983)] or S-adenosyl-L-methionine [Pegg et al, “S-Adenosylmethionine Decarboxylase (Rat Liver),” Methods Enzymol., Vol. 94, pages 234-239 (1983)], respectively. Included in each assay were untreated L1210 cells as controls, as well as cells treated with DEHSPM, a drug having a known reproducible effect on each enzyme, as positive controls.

[4] = tested on: spermidine/spermine acetyltransferase (SSAT); experiment: SSAT activity in treated L1210 cells; assay type: cell-based, murine; details: L1210, 10 μM at 48 hours (triamine analogues)
Description: Spermidine/spermine N^1-acetyltransferase activity was based on quantitation of [^14C]-N^1-acetylspermidine formed by acetylation of SPD with [^14C] acetyl coenzyme A according to the method of Libby et al [Biochem. Pharmacol., Vol. 38, supra]. Cells treated with DENSPM were positive controls.

L1210 cells [5] = experiment: Metabolic transformation of polyamine analogues by L1210 cells; assay type: in vitro ADME, murine; details: 48 hours
Description: (§3) The cells were washed twice with cold RPMI-1640, and the pellet was treated with 0.6 N HClO4 (1 ml/10^7 cells). Polyamine contents of the perchloric acid extracts were quantitated by HPLC of the DANSYL derivatives [Bergeron et al, J. Med. Chem., Vol. 37, supra].

[6] = tested on: S-adenosylmethionine decarboxylase (AdoMetDC); experiment: AdoMetDC activity in treated L1210 cells; assay type: cell-based, murine; details: L1210, 1 μM at 6 hours
Description: as §1, §2

L1210 cells [7] = experiment: Polyamine pool analysis in L1210 cells; assay type: cell-based, murine; details: for activity at 25 µM / activity at 125 µM / activity at 100 µM / activity at 500 µM / activity at 2 µM / activity at 10 µM: Mus musculus, L1210, 48 h, % of untreated control; for Analogue: intracellular amount, 48 hours
Description: The following guidelines were adopted for studying the impact of the analogues on polyamine pools (Table 2). The measurements were made after a 48-hour exposure to the analogue, and two different concentrations of analogue were evaluated in each case.
as §3

[8] = L1210, 48 hour exposure, Trihydrochloride, read-out: IC50 48 hour
[9] = Mus musculus, L1210, 48 h, L1210, 48 hour exposure, read-out: IC50 48 hour
[10] = Mus musculus, L1210, 96 h, L1210, 96 hour exposure, read-out: IC50 96 hour

Compound | IC50 (L1210 cells [1]; [9]) [µM] | IC50 (L1210 cells [1]; [10]) [µM] | Ki [2] [µM] | ODC activity, percent of untreated control [3] | SSAT activity, percent of untreated control [4] | Parent drug as % of total drug in the cell (L1210 cells [5]; 100 μM analogue) [%] | Parent drug in L1210 cells (L1210 cells [5]; 100 μM analogue) [pmols/10^6] | AdoMetDC activity, percent of untreated control [6] | activity at 100 µM (L1210 cells [7]; 100 μM, read-out: Put) [%] | activity at 100 µM (L1210 cells [7]; 100 μM, read-out: Spd) [%] | activity at 100 µM (L1210 cells [7]; 100 μM, read-out: Spm) [%] | activity at 500 µM (L1210 cells [7]; 500 μM, read-out: Put) [%] | activity at 500 µM (L1210 cells [7]; 500 μM, read-out: Spd) [%] | activity at 500 µM (L1210 cells [7]; 500 μM, read-out: Spm) [%] | Analogue (L1210 cells [7]; 100 μM) [nmol/10^6 cells] | Analogue (L1210 cells [7]; 500 μM) [nmol/10^6 cells] | other results
CCNCCCCNCCCCNCC [DEHSPD, N^1,N^9-Diethylhomospermidine Trihydrochloride] | 25 | 0.3 to 0.4 | 19 | 47% of untreated control | 640% of untreated control | 100 | 4215 | 90% of untreated control | – | – | – | – | – | – | – | – | IC50 (L1210 cells [1]; [8]): 18 to 25 µM; N-Monodealkylation (result in words) (L1210 cells [5]; 100 μM analogue, listed as DE-[4,4], Trihydrochloride): do not show significant N-deethylation; also recorded: no N-deethylation; activity at 25 µM (L1210 cells [7]; 25 μM, read-out: Put): 0%; activity at 25 µM (L1210 cells [7]; 25 μM, read-out: Spd): 6%; activity at 25 µM (L1210 cells [7]; 25 μM, read-out: Spm): 114%; activity at 125 µM (L1210 cells [7]; 125 μM, read-out: Put): 0%; activity at 125 µM (L1210 cells [7]; 125 μM, read-out: Spd): 3%; activity at 125 µM (L1210 cells [7]; 125 μM, read-out: Spm): 97%; Analogue (L1210 cells [7]; 25 μM): 4.61 nmol/10^6 cells; Analogue (L1210 cells [7]; 125 μM): 4.69 nmol/10^6 cells
CCNCCCNCCCCN [MESPD(N1), N^1-Ethylspermidine Trihydrochloride] | > 100 | 3 to 5 | 8.6 | 10 (10) percent of untreated control | 430% of untreated control | 96.3 | 3946 | 58% of untreated control | 0 | 25 | 80 | 0 | 14 | 53 | 4.20 | 4.73 | –
CCCNCCCCNCCCCNCCC [DPHSPD, N^1,N^9-Dipropylhomospermidine Trihydrochloride] | > 100 | 6 | 67 | 86% of untreated control | 420% of untreated control | – | – | 123% of untreated control | 0 | 19 | 144 | 0 | 7 | 111 | 3.12 | 3.68 | Elaboration to tetraamine (result in words) (L1210 cells [5]; 500 μM analogue): elaboration of N-Monoalkyl [4,4]; Parent drug as % of total drug in the cell (L1210 cells [5]; 500 μM analogue): 87.7%; Parent drug in L1210 cells (L1210 cells [5]; 500 μM analogue): 3149 pmols/10^6
CNCCCNCCCNC [DMNSPD, N^1,N^7-Dimethylnorspermidine Trihydrochloride] | > 100 | 3.5 to 6 | 60 | 17% of untreated control | 250% of untreated control | 100 | 5000 | 41% of untreated control | 0 | 9 | 58 | 0 | 6 to 15 | < 50 | 5.00 | 5.51 | N-Monodealkylation (result in words) (L1210 cells [5]; 100 μM analogue): no N-demethylation
CCCNCCCNCCCN [MPNSPD, N^1-Propylnorspermidine Trihydrochloride] | > 100 | ~100 | 33 | 33% of untreated control | 470% of untreated control | 94.3 | 3019 | 38% of untreated control | 0 | 29 | 56 | 0 | – | < 50 | 3.07 | 4.78 | Elaboration to tetraamine (result in words) (L1210 cells [5]; 100 μM analogue, listed as MP-[3,3], Trihydrochloride): no evidence of a tetraamine elaboration metabolite; also recorded: no elaboration of N-Monoalkyl [3,3]
CNCCCCCNCCCCNC [DM(4,5), 2,7,13-Triazatetradecane Trihydrochloride] | 2 to 6 | 0.11 to 0.12 | 21 | 56% of untreated control | 130% of untreated control | – | – | 71% of untreated control | – | – | – | – | – | – | – | – | IC50 (L1210 cells [1]; [8]): 2 µM; N-Monodealkylation (result in words) (L1210 cells [5]; 2 μM analogue): no N-demethylation; Parent drug as % of total drug in the cell (L1210 cells [5]; 2 μM analogue): 100%; Parent drug in L1210 cells (L1210 cells [5]; 2 μM analogue): 2790 pmols/10^6; activity at 2 µM (L1210 cells [7]; 2 μM, read-out: Put): 0%; activity at 2 µM (L1210 cells [7]; 2 μM, read-out: Spd): 33%; activity at 2 µM (L1210 cells [7]; 2 μM, read-out: Spm): 112%; activity at 10 µM (L1210 cells [7]; 10 μM, read-out: Put): 0%; activity at 10 µM (L1210 cells [7]; 10 μM, read-out: Spd): 18%; activity at 10 µM (L1210 cells [7]; 10 μM, read-out: Spm): 111%; Analogue (L1210 cells [7]; 2 μM): 2.79 nmol/10^6 cells; Analogue (L1210 cells [7]; 10 μM): 5.36 nmol/10^6 cells
CCCNCCCCNCCCN [MPSPD(N8), N^8-Propylspermidine Trihydrochloride] | > 100 | 50 to 60 | 8.5 | 14% of untreated control | 500% of untreated control | 99.3 | 3549 | 64% of untreated control | 0 | 33 | 103 | 0 | 16 | 95 | 3.52 | 5.16 | Elaboration to tetraamine (result in words) (L1210 cells [5]; 100 μM analogue, listed as N8-MP-[4,3], Trihydrochloride): no evidence of a tetraamine elaboration metabolite; also recorded: no elaboration of N8-Alkyl [4,3]
